Read-outs that look alike come from different tables or passages of the source.
Experiments:
[1] = target: T1, GRPR (Homo sapiens, UniProt P30550); assay: Fluorometric calcium release assay in PC-3 cells; assay type: cell-based; set-up: generated using GRPR-expressing PC-3 cells; endogenous in cells; host or cells: PC-3 cells; details: 50 nM ligand
Description: Following previously published procedures, 5 × 10^4 PC-3 cells in 100 μL of growth media were seeded per well in a 96-well, clear bottom black plate 24 h before the assay. The loading buffer (100 μL/well), containing a calcium-sensitive dye (FLIPR Calcium 6 assay kit), was added to the 96-well plate. After incubation at 37 °C for 2 h, the plate was placed in a FlexStation 3 microplate reader (Molecular Devices). […] Agonistic/antagonistic properties were determined using the relative fluorescent unit (RFU = max–min).

[2] = pH 7.4
Description: Briefly, aliquots (2 μL) of the ^68Ga-labeled peptides were added into a 15 mL falcon tube containing 3 mL of n-octanol and 3 mL of 0.1 mol/L DPBS (pH 7.4). The mixture was vortexed for 1 min and then centrifuged at 3000 rpm for 15 min. Samples of the n-octanol (1 mL) and buffer (1 mL) layers were collected and measured in a gamma counter. LogD7.4 was calculated using the following equation: LogD7.4 = log10 [(counts in the n-octanol phase)/(counts in the buffer phase)].

[3] = Ex vivo biodistribution in PC-3 tumor-bearing mice; set-up: species or system NRG mice; details: mouse, 1 h post-injection; for tissue to tissue ratio at 1 h: male, NRG (NOD.Cg-Rag1^tm1Mom Il2rg^tm1Wjl/SzJ), iv, total radioactivity; for tissue uptake at 1 h: intravenous
Description: For biodistribution studies, the mice were injected with the radiotracer (2–4 MBq) via the tail vein as described above. For blocking, the mice were co-injected with 100 μg of [D-Phe^6,Leu-NHEt^13,des-Met^14]Bombesin(6–14). At 1 h post-injection, the mice were anesthetized through isoflurane inhalation and euthanized through CO2 inhalation. Blood was collected through a cardiac puncture, and organs/tissues of interest were collected, weighed, and counted using a Perkin Elmer (Waltham, MA, USA) Wizard2 2480 automatic gamma counter.

[4] = 15 min post-injection
Description: PET/CT imaging, biodistribution, and in vivo stability studies were conducted on male NOD.Cg-Rag1^tm1Mom Il2rg^tm1Wjl/SzJ (NRG) mice, following previously published procedures. The experiments were conducted according to the guidelines established by the Canadian Council on Animal Care and approved by the Animal Ethics Committee of the University of British Columbia (protocol number A20-0113, approved on 30 September 2020). […] Mice were used for PET/CT imaging and biodistribution studies when the tumor grew to 5–8 mm in diameter over around 4 weeks.
At 15 min post-injection, mice were sedated and euthanized, and urine and blood were collected. The plasma was extracted from whole blood by adding CH3CN (500 μL), vortex, centrifugation, and the separation of supernatant. The plasma and urine samples were analyzed via radio-HPLC using the conditions for quality control of these ^68Ga-labeled radioligands (Table S3).

[5] = test system: PC-3 tumor xenografts; assay: PET/CT imaging of PC-3 tumor xenografts; assay type: in vivo, NRG mice; details: 1 h post-injection
Description: PET/CT imaging experiments were performed on a Siemens (Knoxville, TN) Inveon micro PET/CT scanner. The tumor-bearing mouse was injected with 3–5 MBq of ^68Ga-labeled tracer through a lateral caudal tail vein under anesthesia, followed by recovery and roaming freely in its cage during the uptake period. At 50 min post-injection, a 10 min CT scan was conducted first for the localization and attenuation correction after segmentation for reconstructing the PET images, followed by a 10 min static PET imaging acquisition.

[6] = target: T1, GRPR; set-up: generated using GRPR-expressing PC-3 cells; endogenous in cells; method as in PMID 21552898, PMID 7809097; details: Schally group; cited from earlier work
[7] = target: T1, GRPR; assay: In vitro competition binding assay with [125I-Tyr4]Bombesin on PC-3 cells; set-up: generated using GRPR-expressing PC-3 cells; endogenous in cells; host or cells: PC-3 cells; details: displacement of [125I-Tyr4]Bombesin, n = 3
Description: PC-3 cells were seeded in 24-well, poly-D-lysine plates at 2 × 10^5 cells/well 24–48 h prior to the assay. […] Then, the plates were incubated for about 60 min at 37 °C. […] Data were analyzed using nonlinear regression (one binding site model for competition assay) with GraphPad (San Diego, CA, USA) Prism 8.4.3 software.

T1 sequence (P30550 whole entry): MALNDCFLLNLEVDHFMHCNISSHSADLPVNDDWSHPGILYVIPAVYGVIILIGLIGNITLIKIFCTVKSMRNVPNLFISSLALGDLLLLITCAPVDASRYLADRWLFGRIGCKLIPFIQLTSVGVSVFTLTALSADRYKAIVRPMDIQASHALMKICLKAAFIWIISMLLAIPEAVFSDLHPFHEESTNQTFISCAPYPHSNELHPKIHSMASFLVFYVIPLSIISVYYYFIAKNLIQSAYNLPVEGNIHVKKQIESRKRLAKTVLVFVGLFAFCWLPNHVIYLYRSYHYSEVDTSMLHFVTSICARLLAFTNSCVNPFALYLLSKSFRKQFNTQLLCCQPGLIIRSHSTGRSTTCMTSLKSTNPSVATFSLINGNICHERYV

Nc1ncnc2c1ncn2[C@@H]1O[C@H](COP(=O)(O)OP(=O)(O)OP(=O)(O)O)[C@@H](O)[C@H]1O [ATP, adenosine triphosphate]
Ca2+ efflux (RFU = max–min) [1]: 334 ± 39.0 RFUs

CC(C)C[C@H](NC(=O)[C@H](Cc1c[nH]cn1)NC(=O)CNC(=O)[C@@H](NC(=O)[C@H](C)NC(=O)[C@H](Cc1c[nH]c2ccccc12)NC(=O)[C@H](CCC(N)=O)NC(=O)[C@@H](Cc1ccc2ccccc2c1)NC(=O)CN1CCC(NC(=O)CN2CCN(CC(=O)O)CCN(CC(=O)O)CCN(CC(=O)O)CC2)CC1)C(C)C)C(=O)N1CSC[C@H]1C(N)=O [[^68Ga]Ga-TacBOMB3, metal not drawn]
logD [2]: -2.55 ± 0.03
tissue to tissue ratio at 1 h ([3]; tumor and bone, n = 4, read-out: Tumor/bone uptake ratio): 29.9 ± 8.5
tissue to tissue ratio at 1 h ([3]; tumor and intestines, n = 4, read-out: Tumor/intestines uptake ratio): 4.93 ± 0.84
tissue to tissue ratio at 1 h ([3]; tumor and kidney, n = 4, read-out: Tumor/kidney uptake ratio): 1.34 ± 0.58
tissue to tissue ratio at 1 h ([3]; tumor and muscle, n = 4, read-out: Tumor/muscle uptake ratio): 23.5 ± 9.61
tissue to tissue ratio at 1 h ([3]; tumor and pancreas, n = 4, read-out: Tumor/pancreas uptake ratio): 2.21 ± 0.4
tissue to tissue ratio at 1 h ([3]; tumor and whole blood, n = 4, read-out: Tumor/blood uptake ratio): 5.61 ± 2.33
tissue uptake at 1 h ([3]; PC-3 tumor, n = 4, read-out: PC-3 tumor uptake): 5.09 ± 0.54 %ID/g
tissue uptake at 1 h ([3]; blood, n = 4, read-out: Blood uptake): 1.06 ± 0.51 %ID/g
tissue uptake at 1 h ([3]; brain, muscle, fat, bone, liver, stomach, heart, and spleen, read-out: Uptake values for the brain, muscle, fat, bone, liver, stomach, heart, and spleen): < 1 %ID/g
tissue uptake at 1 h ([3]; fat, n = 4, read-out: Fat uptake): 0.19 ± 0.18 %ID/g
tissue uptake at 1 h ([3]; heart, n = 4, read-out: Heart uptake): 0.35 ± 0.18 %ID/g
tissue uptake at 1 h ([3]; intestines, n = 4, read-out: Intestines uptake): 1.06 ± 0.26 %ID/g
tissue uptake at 1 h ([3]; kidneys, n = 4, read-out: Kidneys uptake): 4.61 ± 2.72 %ID/g
tissue uptake at 1 h ([3]; liver, n = 4, read-out: Liver uptake): 0.65 ± 0.19 %ID/g
tissue uptake at 1 h ([3]; lungs, n = 4, read-out: Lungs uptake): 1.63 ± 0.75 %ID/g
tissue uptake at 1 h ([3]; muscle, n = 4, read-out: Muscle uptake): 0.24 ± 0.12 %ID/g
tissue uptake at 1 h ([3]; pancreas, n = 4, read-out: Pancreas uptake): 2.41 ± 0.72 %ID/g
tissue uptake at 1 h ([3]; spleen, n = 4, read-out: Spleen uptake): 0.5 ± 0.32 %ID/g
tissue uptake at 1 h ([3]; stomach, n = 4, read-out: Stomach uptake): 0.82 ± 0.37 %ID/g
tissue uptake at 1 h ([3]; testes, n = 4, read-out: Testes uptake): 0.37 ± 0.06 %ID/g
intact fraction in plasma ([4]; mouse plasma, n = 3): 27.3 ± 4.84%
intact tracer in urine ([4]; mouse urine): no intact
visualization of PC-3 tumor xenografts in PET images [5]: clearly visualized
excretion pathway ([5]; PET images): primarily excreted via the renal pathway

D-2-Nal-[Leu^13ψThz^14]Bombesin(7–14) [RC-3965-II]
binding affinity to GRPR [6]: picomolar binding affinity

D-Phe-[Leu^13ψThz^14]Bombesin(7–14) [RC-3950-II]
binding affinity to GRPR [6]: picomolar binding affinity

D-Tpi-[Leu^13ψThz^14]Bombesin(7–14) [RC-3910-II]
binding affinity to GRPR [6]: picomolar binding affinity

Ga-TacBOMB2: nonradioactive Ga-complexed standard of TacBOMB2 (FQWAVGHLX; Ga-DOTA-Pip (4-amino-(1-carboxymethyl)piperidine) on the N-terminus; residue 1 is D-Phe; X9 = Thz (thiazoline/thiazolidine-4-carboxylic acid, named thiazoline in the text) replacing Met14, normal Leu1)
Ki [7]: 7.62 ± 0.19 nM

[D-Phe^6,Leu-NHEt^13,des-Met^14]Bombesin(6–14)
Ca2+ efflux (RFU = max–min) [1]: 25.3 ± 1.92 RFUs

bombesin
Ca2+ efflux (RFU = max–min) [1]: 754 ± 38.3 RFUs

— paper PMC9962964, “^68Ga-Labeled [Thz^14]Bombesin(7–14) Analogs: Promising GRPR-Targeting Agonist PET Tracers with Low Pancreas Uptake” (Molecules, 2023)
